Data reported in ChEMBL document CHEMBL1671662, “In vitro activities of telavancin and six comparator agents against anaerobic bacterial isolates” (2009).
In brackets after ≈: the same amount, converted by molar mass.

Columns and labels:
[1] = tested on: Bifidobacterium dentium; assay: Antibacterial activity against Bifidobacterium dentium by CLSI M11-A6 agar dilution method in presence of beta-lactamase inhibitor Sulbactam; format: functional
[2] = tested on: Hoylesella loescheii; assay: Antibacterial activity against Prevotella loescheii by CLSI M11-A6 agar dilution method in presence of beta-lactamase inhibitor Sulbactam; format: functional
[3] = tested on: Peptoniphilus asaccharolyticus; assay: Antibacterial activity against Peptoniphilus asaccharolyticus by CLSI M11-A6 agar dilution method in presence of beta-lactamase inhibitor Sulbactam; format: functional
[4] = tested on: Actinomyces naeslundii; assay: Antibacterial activity against Actinomyces naeslundii by CLSI M11-A6 agar dilution method in presence of beta-lactamase inhibitor Sulbactam; format: functional
[5] = tested on: Clostridium tertium; assay: Antibacterial activity against Clostridium tertium by CLSI M11-A6 agar dilution method; format: functional
[6] = tested on: Prevotella buccae; assay: Antibacterial activity against Prevotella buccae by CLSI M11-A6 agar dilution method; format: functional; conditions: Segatella buccae
[7] = tested on: Anaerococcus tetradius; assay: Antibacterial activity against Anaerococcus tetradius by CLSI M11-A6 agar dilution method; format: functional
[8] = tested on: Thomasclavelia ramosa; assay: Antibacterial activity against Clostridium ramosum by CLSI M11-A6 agar dilution method; format: functional
[9] = tested on: Ruminococcus albus; assay: Antibacterial activity against Ruminococcus albus by CLSI M11-A6 agar dilution method; format: functional; conditions: Hominimerdicola alba
[10] = tested on: Paraclostridium bifermentans; assay: Antibacterial activity against Clostridium bifermentans by CLSI M11-A6 agar dilution method; format: functional
[11] = tested on: Phocaeicola vulgatus; assay: Antibacterial activity against Bacteroides vulgatus by CLSI M11-A6 agar dilution method; format: functional
[12] = tested on: Bifidobacterium breve; assay: Antibacterial activity against Bifidobacterium breve by CLSI M11-A6 agar dilution method; format: functional
[13] = tested on: Clostridium sporogenes; assay: Antibacterial activity against Clostridium sporogenes by CLSI M11-A6 agar dilution method; format: functional
[14] = tested on: Ruminococcus torques; assay: Antibacterial activity against Ruminococcus torques by CLSI M11-A6 agar dilution method; format: functional; conditions: Mediterraneibacter torques
[15] = tested on: Ruminococcus flavefaciens; assay: Antibacterial activity against Ruminococcus flavefaciens by CLSI M11-A6 agar dilution method; format: functional
[16] = tested on: Bifidobacterium adolescentis; assay: Antibacterial activity against Bifidobacterium adolescentis by CLSI M11-A6 agar dilution method; format: functional
[17] = tested on: Propionibacterium propionicum; assay: Antibacterial activity against Propionibacterium propionicus by CLSI M11-A6 agar dilution method; format: functional; conditions: Arachnia propionica
[18] = tested on: Streptococcus anginosus; assay: Antibacterial activity against Streptococcus anginosus by CLSI M11-A6 agar dilution method; format: functional
[19] = tested on: Peptoniphilus asaccharolyticus; assay: Antibacterial activity against Peptoniphilus asaccharolyticus by CLSI M11-A6 agar dilution method; format: functional
[20] = tested on: Streptococcus constellatus; assay: Antibacterial activity against Streptococcus constellatus by CLSI M11-A6 agar dilution method; format: functional
[21] = tested on: Fusobacterium mortiferum; assay: Antibacterial activity against Fusobacterium mortiferum by CLSI M11-A6 agar dilution method; format: functional
[22] = tested on: Prevotella intermedia; assay: Antibacterial activity against Prevotella P intermedia by CLSI M11-A6 agar dilution method; format: functional
[23] = tested on: Clostridium bartlettii; assay: Antibacterial activity against Clostridium bartlettii by CLSI M11-A6 agar dilution method; format: functional; conditions: Intestinibacter bartlettii
[24] = tested on: Bifidobacterium dentium; assay: Antibacterial activity against Bifidobacterium dentium by CLSI M11-A6 agar dilution method; format: functional
[25] = tested on: Prevotella intermedia; assay: Antibacterial activity against Prevotella intermedia by CLSI M11-A6 agar dilution method; format: functional
[26] = tested on: Clostridium spiroforme; assay: Antibacterial activity against Clostridium spiroforme by CLSI M11-A6 agar dilution method; format: functional; conditions: Thomasclavelia spiroformis
[27] = Antibacterial activity against Bifidobacterium infantis by CLSI M11-A6 agar dilution method; format: functional, Bifidobacterium longum subsp. infantis; conditions: Bifidobacterium longum
[28] = tested on: Prevotella oris; assay: Antibacterial activity against Prevotella oris by CLSI M11-A6 agar dilution method; format: functional; conditions: Segatella oris
[29] = tested on: Bacteroides fragilis; assay: Antibacterial activity against Bacteroides fragilis by CLSI M11-A6 agar dilution method; format: functional
[30] = tested on: Eggerthella lenta; assay: Antibacterial activity against Eggerthella lenta by CLSI M11-A6 agar dilution method; format: functional
[31] = tested on: Prevotella melaninogenica; assay: Antibacterial activity against Prevotella melaninogenica by CLSI M11-A6 agar dilution method; format: functional
[32] = tested on: Finegoldia magna; assay: Antibacterial activity against Finegoldia magna by CLSI M11-A6 agar dilution method; format: functional
[33] = tested on: Clostridium; assay: Antibacterial activity against Clostridium hypermegas by CLSI M11-A6 agar dilution method; format: functional
[34] = tested on: Clostridium disporicum; assay: Antibacterial activity against Clostridium disporicum by CLSI M11-A6 agar dilution method; format: functional
[35] = tested on: [Clostridium] innocuum; assay: Antibacterial activity against Clostridium innocuum by CLSI M11-A6 agar dilution method; format: functional
[36] = tested on: Holdemania filiformis; assay: Antibacterial activity against Holdemania filiformis by CLSI M11-A6 agar dilution method; format: functional
[37] = tested on: Prevotella denticola; assay: Antibacterial activity against Prevotella P denticola by CLSI M11-A6 agar dilution method; format: functional
[38] = tested on: Bifidobacterium longum; assay: Antibacterial activity against Bifidobacterium longum by CLSI M11-A6 agar dilution method; format: functional
[39] = tested on: Hoylesella oralis; assay: Antibacterial activity against Prevotella oralis by CLSI M11-A6 agar dilution method; format: functional
[40] = tested on: Bifidobacterium bifidum; assay: Antibacterial activity against Bifidobacterium bifidum by CLSI M11-A6 agar dilution method; format: functional
[41] = tested on: Clostridium scindens; assay: Antibacterial activity against Clostridium scindens by CLSI M11-A6 agar dilution method; format: functional
[42] = tested on: Bifidobacterium pseudolongum; assay: Antibacterial activity against Bifidobacterium pseudolongum by CLSI M11-A6 agar dilution method; format: functional
[43] = tested on: Enterocloster clostridioformis; assay: Antibacterial activity against Clostridium clostridioforme by CLSI M11-A6 agar dilution method; format: functional

CC1(C)S[C@@H]2[C@H](NC(=O)[C@H](N)c3ccccc3)C(=O)N2[C@H]1C(=O)O [AMPICILLIN]
MIC50 [1]: 0.25 µg/mL | MIC90 [1]: 1 µg/mL | MIC50 [2]: ≤ 0.12 µg/mL | MIC90 [2]: 2 µg/mL | MIC50 [3]: 0.25 µg/mL | MIC90 [3]: 0.5 µg/mL | MIC50 [4]: 0.25 µg/mL | MIC90 [4]: 1 µg/mL

CC(=O)NC[C@H]1CN(c2ccc(N3CCOCC3)c(F)c2)C(=O)O1 [LINEZOLID]
MIC50 [5]: 2 µg/mL (≈ 5.93 µM) | MIC90 [5]: 4 µg/mL (≈ 11.9 µM) | MIC50 [6]: 2 µg/mL (≈ 5.93 µM) | MIC90 [6]: 2 µg/mL (≈ 5.93 µM) | MIC50 [7]: 1 µg/mL (≈ 2.96 µM) | MIC90 [7]: 2 µg/mL (≈ 5.93 µM) | MIC50 [8]: 8 µg/mL (≈ 23.7 µM) | MIC90 [8]: 8 µg/mL (≈ 23.7 µM) | MIC50 [9]: 2 µg/mL (≈ 5.93 µM) | MIC90 [9]: 4 µg/mL (≈ 11.9 µM) | MIC50 [10]: 2 µg/mL (≈ 5.93 µM) | MIC90 [10]: 4 µg/mL (≈ 11.9 µM) | MIC50 [11]: 2 µg/mL (≈ 5.93 µM) | MIC90 [11]: 4 µg/mL (≈ 11.9 µM) | MIC50 [12]: 1 µg/mL (≈ 2.96 µM) | MIC90 [12]: 8 µg/mL (≈ 23.7 µM) | MIC50 [13]: 2 µg/mL (≈ 5.93 µM) | MIC90 [13]: 4 µg/mL (≈ 11.9 µM) | MIC50 [14]: 2 µg/mL (≈ 5.93 µM) | MIC90 [14]: 4 µg/mL (≈ 11.9 µM) | MIC50 [15]: 2 µg/mL (≈ 5.93 µM) | MIC90 [15]: 4 µg/mL (≈ 11.9 µM) | MIC50 [16]: 1 µg/mL (≈ 2.96 µM) | MIC90 [16]: 8 µg/mL (≈ 23.7 µM) | MIC50 [17]: 1 µg/mL (≈ 2.96 µM) | MIC90 [17]: 8 µg/mL (≈ 23.7 µM) | MIC50 [18]: 2 µg/mL (≈ 5.93 µM) | MIC90 [18]: 4 µg/mL (≈ 11.9 µM) | MIC50 [19]: 1 µg/mL (≈ 2.96 µM) | MIC90 [19]: 2 µg/mL (≈ 5.93 µM) | MIC50 [20]: 2 µg/mL (≈ 5.93 µM) | MIC90 [20]: 4 µg/mL (≈ 11.9 µM) | MIC50 [21]: 1 µg/mL (≈ 2.96 µM) | MIC90 [21]: 1 µg/mL (≈ 2.96 µM) | MIC50 [22]: 2 µg/mL (≈ 5.93 µM) | MIC90 [22]: 2 µg/mL (≈ 5.93 µM) | MIC50 [23]: 2 µg/mL (≈ 5.93 µM) | MIC90 [23]: 4 µg/mL (≈ 11.9 µM) | MIC50 [24]: 1 µg/mL (≈ 2.96 µM) | MIC90 [24]: 8 µg/mL (≈ 23.7 µM) | MIC50 [25]: 2 µg/mL (≈ 5.93 µM) | MIC90 [25]: 2 µg/mL (≈ 5.93 µM) | MIC50 [26]: 2 µg/mL (≈ 5.93 µM) | MIC90 [26]: 4 µg/mL (≈ 11.9 µM) | MIC90 [27]: 8 µg/mL (≈ 23.7 µM) | MIC50 [28]: 2 µg/mL (≈ 5.93 µM) | MIC90 [28]: 2 µg/mL (≈ 5.93 µM) | MIC [29]: 4 µg/mL (≈ 11.9 µM) | MIC50 [29]: 4 µg/mL (≈ 11.9 µM) | MIC90 [29]: 8 µg/mL (≈ 23.7 µM) | MIC50 [30]: 1 µg/mL (≈ 2.96 µM) | MIC90 [30]: 8 µg/mL (≈ 23.7 µM) | MIC50 [31]: 2 µg/mL (≈ 5.93 µM) | MIC90 [31]: 2 µg/mL (≈ 5.93 µM) | MIC50 [32]: 1 µg/mL (≈ 2.96 µM) | MIC90 [32]: 2 µg/mL (≈ 5.93 µM) | MIC50 [33]: 2 µg/mL (≈ 5.93 µM) | MIC90 [33]: 4 µg/mL (≈ 11.9 µM) | MIC50 [34]: 2 µg/mL (≈ 5.93 µM) | MIC90 [34]: 4 µg/mL (≈ 11.9 µM) | MIC [35]: 2 µg/mL (≈ 5.93 µM) | MIC50 [35]: 2 µg/mL (≈ 5.93 µM) | MIC90 [35]: 4 µg/mL (≈ 11.9 µM) | MIC50 [36]: 1 µg/mL (≈ 2.96 µM) | MIC90 [36]: 8 µg/mL (≈ 23.7 µM) | MIC50 [37]: 2 µg/mL (≈ 5.93 µM) | MIC90 [37]: 2 µg/mL (≈ 5.93 µM) | MIC50 [38]: 1 µg/mL (≈ 2.96 µM) | MIC90 [38]: 8 µg/mL (≈ 23.7 µM) | MIC50 [39]: 2 µg/mL (≈ 5.93 µM) | MIC90 [39]: 2 µg/mL (≈ 5.93 µM) | MIC50 [40]: 1 µg/mL (≈ 2.96 µM) | MIC90 [40]: 8 µg/mL (≈ 23.7 µM) | MIC50 [41]: 2 µg/mL (≈ 5.93 µM) | MIC90 [41]: 4 µg/mL (≈ 11.9 µM) | MIC50 [42]: 1 µg/mL (≈ 2.96 µM) | MIC90 [42]: 8 µg/mL (≈ 23.7 µM) | MIC50 [43]: 4 µg/mL (≈ 11.9 µM) | MIC90 [43]: 4 µg/mL (≈ 11.9 µM)
